# Laboratory results as given in ChEMBL document CHEMBL3885881, “DrugMatrix”.
# Species: Rattus norvegicus
# Assay: DrugMatrix - Regimen: Daily Repeat
# Format: toxicity, organism-based, Sprague-Dawley
# Set-up: regimen Daily Repeat, gender Male, age 6-8 weeks
# Conditions: in vivo, po, route oral GAVAGE, vehicle .5 % CMC; for TOTAL PROTEIN / ALANINE AMINOTRANSFERASE / ALBUMIN / ALKALINE PHOSPHATASE / ASPARTATE AMINOTRANSFERASE / BLOOD UREA NITROGEN / CARBON DIOXIDE / CHLORIDE / CHOLESTEROL / CREATINE PHOSPHOKINASE / CREATININE / GLUCOSE / LACTATE DEHYDROGENASE / LIPASE / POTASSIUM / SODIUM / TOTAL BILIRUBIN: tissue Plasma; for ABSOLUTE BASOPHIL / ABSOLUTE EOSINOPHIL / ABSOLUTE LYMPHOCYTE / ABSOLUTE MONOCYTE / ABSOLUTE SEGMENTED NEUTROPHIL / BASOPHIL / EOSINOPHIL / ERYTHROCYTE COUNT / HEMATOCRIT / HEMOGLOBIN / LEUKOCYTE COUNT / LYMPHOCYTE / MEAN CORPUSCULAR HEMOGLOBIN / MEAN CORPUSCULAR HEMOGLOBIN CONCENTRATION / MEAN CORPUSCULAR VOLUME / MONOCYTE / NEUTROPHIL / NUCLEATED RED BLOOD CELLS / PLATELET COUNT: tissue Blood
# [1] = 150 mg/kg, 120 h, dose level Low, time 5 day
# [2] = 2000 mg/kg, 72 h, dose level High, time 3 day
# [3] = 2000 mg/kg, 120 h, dose level High, time 5 day
smiles,measurement,setting,value
C[C@@H]1CC[C@H]2[C@@H](C)C(=O)O[C@@H]3O[C@@]4(C)CC[C@@H]1[C@]32OO4 [ARTEMISININ],TOTAL PROTEIN,"150 mg/kg, 72 h, dose level Low, time 3 day",6.7 G/DL
same,ABSOLUTE BASOPHIL,[1],0 CELLS/uL
same,ABSOLUTE EOSINOPHIL,[1],0 CELLS/uL
same,ABSOLUTE LYMPHOCYTE,[1],11615.67 CELLS/uL
same,ABSOLUTE MONOCYTE,[1],298.33 CELLS/uL
same,ABSOLUTE SEGMENTED NEUTROPHIL,[1],986 CELLS/uL
same,BASOPHIL,[1],0%
same,EOSINOPHIL,[1],0%
same,ERYTHROCYTE COUNT,[1],5.22 x10E6/uL
same,HEMATOCRIT,[1],33.07%
same,HEMOGLOBIN,[1],12.77 G/DL
same,LEUKOCYTE COUNT,[1],12.9 x10E3/uL
same,LYMPHOCYTE,[1],90%
same,MEAN CORPUSCULAR HEMOGLOBIN,[1],24.43 pg
same,MEAN CORPUSCULAR HEMOGLOBIN CONCENTRATION,[1],38.63 G/DL
same,MEAN CORPUSCULAR VOLUME,[1],63.33 fL
same,MONOCYTE,[1],2.33%
same,NEUTROPHIL,[1],7.67%
same,NUCLEATED RED BLOOD CELLS,[1],0 /100WBC
same,PLATELET COUNT,[1],1315 x10E3/uL
same,ALANINE AMINOTRANSFERASE,[1],48.67 u/L
same,ALBUMIN,[1],3.93 G/DL
same,ALKALINE PHOSPHATASE,[1],408.33 u/L
same,ASPARTATE AMINOTRANSFERASE,[1],87.67 u/L
same,BLOOD UREA NITROGEN,[1],18 mg/dL
same,CARBON DIOXIDE,[1],27 mmol/L
same,CHLORIDE,[1],101 MEQ/L
same,CHOLESTEROL,[1],71.67 mg/dL
same,CREATINE PHOSPHOKINASE,[1],464 u/L
same,CREATININE,[1],0.19 mg/dL
same,GLUCOSE,[1],139.33 mg/dL
same,LACTATE DEHYDROGENASE,[1],476 u/L
same,LIPASE,[1],10 u/L
same,POTASSIUM,[1],6.65 MEQ/L
same,SODIUM,[1],141.93 MEQ/L
same,TOTAL BILIRUBIN,[1],0.2 mg/dL
same,TOTAL PROTEIN,[1],5.93 G/DL
same,ABSOLUTE BASOPHIL,[2],0 CELLS/uL
same,ABSOLUTE EOSINOPHIL,[2],274 CELLS/uL
same,ABSOLUTE LYMPHOCYTE,[2],15228 CELLS/uL
same,ABSOLUTE MONOCYTE,[2],318.67 CELLS/uL
same,BASOPHIL,[2],0%
same,EOSINOPHIL,[2],1.67%
same,ERYTHROCYTE COUNT,[2],5.42 x10E6/uL
same,HEMATOCRIT,[2],33.43%
same,HEMOGLOBIN,[2],13.03 G/DL
same,LEUKOCYTE COUNT,[2],16.97 x10E3/uL
same,LYMPHOCYTE,[2],89%
same,MEAN CORPUSCULAR HEMOGLOBIN,[2],24.07 pg
same,MEAN CORPUSCULAR HEMOGLOBIN CONCENTRATION,[2],39 G/DL
same,MEAN CORPUSCULAR VOLUME,[2],61.67 fL
same,MONOCYTE,[2],2%
same,NEUTROPHIL,[2],7.33%
same,NUCLEATED RED BLOOD CELLS,[2],0 /100WBC
same,PLATELET COUNT,[2],1460 x10E3/uL
same,ALANINE AMINOTRANSFERASE,[2],59.67 u/L
same,ALBUMIN,[2],4 G/DL
same,ALKALINE PHOSPHATASE,[2],390 u/L
same,ASPARTATE AMINOTRANSFERASE,[2],112.33 u/L
same,BLOOD UREA NITROGEN,[2],19.67 mg/dL
same,CARBON DIOXIDE,[2],23.67 mmol/L
same,CHLORIDE,[2],101.67 MEQ/L
same,CHOLESTEROL,[2],97.67 mg/dL
same,CREATINE PHOSPHOKINASE,[2],581.33 u/L
same,CREATININE,[2],0.25 mg/dL
same,GLUCOSE,[2],144.33 mg/dL
same,LACTATE DEHYDROGENASE,[2],387.67 u/L
same,LIPASE,[2],12.33 u/L
same,POTASSIUM,[2],6.36 MEQ/L
same,SODIUM,[2],142.67 MEQ/L
same,TOTAL BILIRUBIN,[2],0.2 mg/dL
same,TOTAL PROTEIN,[2],6 G/DL
same,ABSOLUTE BASOPHIL,[3],0 CELLS/uL
same,ABSOLUTE EOSINOPHIL,[3],156.67 CELLS/uL
same,ABSOLUTE LYMPHOCYTE,[3],13145.33 CELLS/uL
same,ABSOLUTE MONOCYTE,[3],96 CELLS/uL
same,ABSOLUTE SEGMENTED NEUTROPHIL,[3],868.67 CELLS/uL
same,BASOPHIL,[3],0%
same,EOSINOPHIL,[3],1%
same,ERYTHROCYTE COUNT,[3],5.52 x10E6/uL
same,HEMATOCRIT,[3],33.57%
same,HEMOGLOBIN,[3],13.27 G/DL
same,LEUKOCYTE COUNT,[3],14.27 x10E3/uL
same,LYMPHOCYTE,[3],92%
same,MEAN CORPUSCULAR HEMOGLOBIN,[3],24.07 pg
same,MEAN CORPUSCULAR HEMOGLOBIN CONCENTRATION,[3],39.53 G/DL
same,MEAN CORPUSCULAR VOLUME,[3],60.87 fL
same,MONOCYTE,[3],0.67%
same,NEUTROPHIL,[3],6.33%
same,NUCLEATED RED BLOOD CELLS,[3],0.33 /100WBC
same,PLATELET COUNT,[3],1230 x10E3/uL
same,ALANINE AMINOTRANSFERASE,[3],52.67 u/L
same,ALBUMIN,[3],4.1 G/DL
same,ALKALINE PHOSPHATASE,[3],299.67 u/L
same,ASPARTATE AMINOTRANSFERASE,[3],83.33 u/L
same,BLOOD UREA NITROGEN,[3],19.33 mg/dL
same,CARBON DIOXIDE,[3],28.67 mmol/L
same,CHLORIDE,[3],104 MEQ/L
same,CHOLESTEROL,[3],75.33 mg/dL
same,CREATINE PHOSPHOKINASE,[3],308.33 u/L
same,CREATININE,[3],0.23 mg/dL
same,GLUCOSE,[3],133 mg/dL
same,LACTATE DEHYDROGENASE,[3],153.67 u/L
same,LIPASE,[3],10.33 u/L
same,POTASSIUM,[3],6.54 MEQ/L
same,SODIUM,[3],147.4 MEQ/L
same,TOTAL BILIRUBIN,[3],0.17 mg/dL
same,TOTAL PROTEIN,[3],6.1 G/DL
